Test results taken from PubChem BioAssay AID248 (DTP/NCI, 2004).
Inconclusive results and toxic doses are left out.

Tested on: L1210 leukemia ip in BDF1 mice, survival T/C
Test: NCI In Vivo Anticancer Drug Screen. Data for tumor model L1210 Leukemia (intraperitoneal) in B6D2F1 (BDF1) mice
Conditions: endpoint: mean survival time, higher = longer survival
Summary of the method: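 Antitumor effect is assessed in tumor-bearing animals. Survival in the compound arm is compared with a vehicle-dosed control arm and expressed as their quotient.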

[1] = dose: 10.0 mg/kg/injection, schedule: Q01DX Z (ip), vehicle: other
[2] = dose: 30.0 mg/kg/injection, schedule: Q01DX Z (ip), vehicle: other
[3] = dose: 100.0 mg/kg/injection, schedule: Q01DX015 (ip), vehicle: saline
[4] = dose: 100.0 mg/kg/injection, schedule: Q04DX003 (ip), vehicle: saline with Tween-80
[5] = dose: 75.0 mg/kg/injection, schedule: Q01DX001 (ip), vehicle: saline
[6] = dose: 150.0 mg/kg/injection, schedule: Q01DX001 (ip), vehicle: saline
[7] = dose: 100.0 mg/kg/injection, schedule: Q01DX001 (ip), vehicle: Klucel (hydroxypropylcellulose) (HPC)
[8] = dose: 400.0 mg/kg/injection, schedule: Q01DX001 (ip), vehicle: Klucel (hydroxypropylcellulose) (HPC)
[9] = dose: 50.0 mg/kg/injection, schedule: Q01DX001 (ip), vehicle: saline
[10] = dose: 100.0 mg/kg/injection, schedule: Q01DX001 (ip), vehicle: saline
[11] = dose: 200.0 mg/kg/injection, schedule: Q04DX003 (ip), vehicle: saline with Tween-80
[12] = dose: 400.0 mg/kg/injection, schedule: Q04DX003 (ip), vehicle: saline with Tween-80

O=P1(N(CCF)CCF)NCCCO1 (stereo unspecified)
T/C (dose: 2.5 mg/kg/injection, schedule: Q01DX Z (ip), vehicle: saline): 96 % of control
T/C (dose: 5.0 mg/kg/injection, schedule: Q01DX Z (ip), vehicle: saline): 91 % of control
T/C [1]: 93 % of control
T/C (dose: 10.0 mg/kg/injection, schedule: Q01DX Z (ip), vehicle: saline): 115 % of control
T/C [2]: 106 % of control

O=P1(N(CCF)CCCl)NCCCO1 (stereo unspecified)
T/C [1]: 94 % of control
T/C [2]: 102 % of control

NC(=S)N/N=C/c1ncccc1O
T/C (dose: 1.8 mg/kg/injection, schedule: Q01DX Z (ip), vehicle: saline): 111 % of control
T/C (dose: 2.7 mg/kg/injection, schedule: Q01DX Z (ip), vehicle: saline): 113 % of control
T/C (dose: 4.1 mg/kg/injection, schedule: Q01DX Z (ip), vehicle: saline): 118 % of control
T/C (dose: 6.25 mg/kg/injection, schedule: Q01DX015 (ip), vehicle: saline): 122 % of control
T/C (dose: 6.25 mg/kg/injection, schedule: Q01DX Z (ip), vehicle: saline): 120 % of control
T/C (dose: 12.5 mg/kg/injection, schedule: Q01DX Z (ip), vehicle: saline): 153 % of control
T/C (dose: 21.0 mg/kg/injection, schedule: Q03HX032 (ip), vehicle: saline with Tween-80): 119 % of control
T/C (dose: 25.0 mg/kg/injection, schedule: Q01DX015 (ip), vehicle: saline): 150 % of control
T/C (dose: 25.0 mg/kg/injection, schedule: Q01DX Z (ip), vehicle: saline): 159 % of control
T/C (dose: 47.0 mg/kg/injection, schedule: Q03HX032 (ip), vehicle: saline with Tween-80): 120 % of control
T/C (dose: 50.0 mg/kg/injection, schedule: Q01DX Z (ip), vehicle: saline): 170 % of control
T/C [3]: 111 % of control
T/C (dose: 100.0 mg/kg/injection, schedule: Q01DX Z (ip), vehicle: saline): 165 % of control
T/C (dose: 100.0 mg/kg/injection, schedule: Q01DX Z (oral), vehicle: saline): 112 % of control
T/C (dose: 150.0 mg/kg/injection, schedule: Q01DX Z (ip), vehicle: saline): 153 % of control
T/C (dose: 200.0 mg/kg/injection, schedule: Q01DX015 (ip), vehicle: saline): 94 % of control
T/C (dose: 335.0 mg/kg/injection, schedule: Q01DX Z (ip), vehicle: saline): 118 % of control
T/C (dose: 335.0 mg/kg/injection, schedule: Q01DX Z (oral), vehicle: saline): 115 % of control
T/C (dose: 400.0 mg/kg/injection, schedule: Q01DX015 (ip), vehicle: saline): 90 % of control

COc1ccc2nc3c4ccccc4scc-3c2c1
T/C [4]: 92 % of control

CC(=O)OC(OC(C)=O)c1ccccn1
T/C [5]: 94 % of control
T/C [6]: 96 % of control
T/C (dose: 300.0 mg/kg/injection, schedule: Q01DX001 (ip), vehicle: saline): 93 % of control

O=S(O)OS(=O)O
T/C (dose: 100.0 mg/kg/injection, schedule: Q01DX009 (ip), vehicle: saline): 93 % of control
T/C (dose: 100.0 mg/kg/injection, schedule: Q04DX003 (ip), vehicle: saline): 100 % of control
T/C (dose: 200.0 mg/kg/injection, schedule: Q01DX009 (ip), vehicle: saline): 90 % of control
T/C (dose: 200.0 mg/kg/injection, schedule: Q04DX003 (ip), vehicle: saline): 104 % of control
T/C (dose: 400.0 mg/kg/injection, schedule: Q01DX009 (ip), vehicle: saline): 86 % of control
T/C (dose: 400.0 mg/kg/injection, schedule: Q04DX003 (ip), vehicle: saline): 102 % of control

CCCCCCCCCCCCCCCCCCSCCOCCSCCCCCCCCCCCCCCCCCC
T/C [7]: 87 % of control
T/C [8]: 88 % of control

Nc1cc(Br)cc2[nH]c(=O)c3cc(Br)ccc3c12
T/C (dose: 100.0 mg/kg/injection, schedule: Q01DX001 (ip), vehicle: carboxymethylcellulose (CMC)): 100 % of control
T/C (dose: 200.0 mg/kg/injection, schedule: Q01DX001 (ip), vehicle: carboxymethylcellulose (CMC)): 100 % of control
T/C (dose: 400.0 mg/kg/injection, schedule: Q01DX001 (ip), vehicle: carboxymethylcellulose (CMC)): 102 % of control

CC(=O)Nc1ccc2ccccc2c1-c1c(NC(C)=O)ccc2ccccc12
T/C (dose: 25.0 mg/kg/injection, schedule: Q04DX002 (ip), vehicle: saline with Tween-80): 97 % of control
T/C (dose: 50.0 mg/kg/injection, schedule: Q04DX002 (ip), vehicle: saline with Tween-80): 90 % of control

O=C(Cl)OC12CC3CC(CC(C3)C1)C2
T/C [7]: 95 % of control
T/C (dose: 100.0 mg/kg/injection, schedule: Q01DX009 (ip), vehicle: other): 105 % of control
T/C (dose: 200.0 mg/kg/injection, schedule: Q01DX001 (ip), vehicle: Klucel (hydroxypropylcellulose) (HPC)): 97 % of control
T/C (dose: 200.0 mg/kg/injection, schedule: Q01DX009 (ip), vehicle: other): 105 % of control
T/C [8]: 100 % of control
T/C (dose: 400.0 mg/kg/injection, schedule: Q01DX009 (ip), vehicle: other): 105 % of control

CN(C)CCCn1c(=O)c2ccccc2c2ccccc21
T/C [9]: 101 % of control
T/C (dose: 50.0 mg/kg/injection, schedule: Q01DX015 (ip), vehicle: saline): 98 % of control
T/C [10]: 103 % of control
T/C [3]: 108 % of control

CC(=O)Oc1cc2c3c(c1)-c1c(ccc(OC(C)=O)c1OC(C)=O)CC3NCC2 (stereo unspecified)
T/C (dose: 3.13 mg/kg/injection, schedule: Q04DX003 (ip), vehicle: DMSO): 93 % of control
T/C (dose: 6.25 mg/kg/injection, schedule: Q04DX003 (ip), vehicle: DMSO): 93 % of control
T/C (dose: 12.5 mg/kg/injection, schedule: Q04DX003 (ip), vehicle: DMSO): 93 % of control
T/C (dose: 25.0 mg/kg/injection, schedule: Q04DX003 (ip), vehicle: DMSO): 98 % of control
T/C (dose: 50.0 mg/kg/injection, schedule: Q04DX003 (ip), vehicle: DMSO): 87 % of control

Cc1c(Cl)c(Cl)c(Cl)c(Cl)c1Cl
T/C [4]: 101 % of control
T/C [11]: 95 % of control
T/C [12]: 95 % of control

COc1cc(N=Nc2ccc([N+](=O)[O-])cc2)c(OC)cc1N
T/C (dose: 5.0 mg/kg/injection, schedule: Q01DX001 (ip), vehicle: other): 98 % of control
T/C (dose: 10.0 mg/kg/injection, schedule: Q01DX001 (ip), vehicle: other): 101 % of control
T/C (dose: 20.0 mg/kg/injection, schedule: Q01DX001 (ip), vehicle: other): 98 % of control
T/C (dose: 40.0 mg/kg/injection, schedule: Q01DX001 (ip), vehicle: other): 101 % of control

COc1ccc(CN2CCCN(Cc3ccc(OC)cc3OC)C2c2cc(Cl)ccc2O)c(OC)c1
T/C [9]: 95 % of control
T/C [10]: 86 % of control
T/C (dose: 200.0 mg/kg/injection, schedule: Q01DX001 (ip), vehicle: saline): 95 % of control
T/C (dose: 400.0 mg/kg/injection, schedule: Q01DX001 (ip), vehicle: saline): 86 % of control

CN1CCC2(CC1)C(=O)N(CC1COc3ccccc3O1)C(=O)C2c1ccccc1 (stereo unspecified)
T/C [7]: 99 % of control

Cc1ccc(S(=O)(=O)N/N=C/C(O)C(O)C(O)CO)cc1 (stereo unspecified)
T/C (dose: 100.0 mg/kg/injection, schedule: Q01DX009 (ip), vehicle: saline with Tween-80): 94 % of control
T/C [4]: 94 % of control
T/C (dose: 200.0 mg/kg/injection, schedule: Q01DX009 (ip), vehicle: saline with Tween-80): 103 % of control
T/C [11]: 94 % of control
T/C (dose: 400.0 mg/kg/injection, schedule: Q01DX009 (ip), vehicle: saline with Tween-80): 96 % of control
T/C [12]: 96 % of control

CCOC(=O)C1C2OC(=O)C(C(=O)C2P2(=O)OCCN2CCCl)C1c1ccc(OC(C)=O)cc1 (stereo unspecified)
T/C (dose: 100.0 mg/kg/injection, schedule: Q04DX003 (ip), vehicle: Klucel (hydroxypropylcellulose) (HPC)): 108 % of control
T/C (dose: 200.0 mg/kg/injection, schedule: Q04DX003 (ip), vehicle: Klucel (hydroxypropylcellulose) (HPC)): 95 % of control
T/C (dose: 400.0 mg/kg/injection, schedule: Q04DX003 (ip), vehicle: Klucel (hydroxypropylcellulose) (HPC)): 108 % of control

NNC(=O)c1ccc(-c2ccc[nH]2)[nH]1
T/C [5]: 108 % of control
T/C [6]: 92 % of control
